We go through 17 compounds from ChEMBL document CHEMBL1123899, “Nucleic acid related compounds. 51. Synthesis and biological properties of sugar-modified analogues of the nucleoside antibiotics tubercidin, toyocamycin, sangivamycin, and formycin” (1987).

Converted amounts (≈) assume the structure as drawn.

This test concerns Vaccinia virus. Kind of test: Minimum inhibitory concentration required to reduce vaccinia virus(VV) induced cytopathogenicity by 50%. It counts as functional. To be noted: Orthopoxvirus vaccinia. Background: Protection from cytopathic effect is a common read-out in antiviral testing.
`NC(=O)c1cn([C@@H]2O[C@H](CO)[C@@H](O)[C@@H]2O)c2ncnc(N)c12` returned an MIC50 of 0.2 µg/mL (≈ 0.647 µM).

`NC(=O)c1ncn([C@@H]2O[C@H](CO)[C@@H](O)[C@H]2O)n1` [RIBAVIRIN] displayed an MIC50 of 20 µg/mL (≈ 81.9 µM).

With `Nc1ncnc2c(C3OC(CO)CC3O)n[nH]c12` (configuration not stated), the MIC50 is above 400 µg/mL.

`Nc1ncnc2c([C@H]3C[C@H](O)[C@@H](CO)O3)n[nH]c12` displayed an MIC50 above 400 µg/mL.

With `N#Cc1cn([C@H]2C[C@H](O)[C@@H](CO)O2)c2ncnc(N)c12`, the MIC50 was 0.1 µg/mL (≈ 0.363 µM).

Compound `Nc1ncnc2c1ccn2[C@@H]1O[C@H](CO)[C@@H](O)[C@H]1O` [TUBERCIDIN] gave an MIC50 of 0.007 µg/mL (≈ 0.0263 µM).

`Nc1ncnc2c1ccn2[C@@H]1O[C@H](CO)[C@@H](O)[C@@H]1O` displayed an MIC50 of 40 µg/mL (≈ 150 µM).

In turn, `Nc1ncnc2c([C@@H]3O[C@H](CO)[C@@H](O)[C@H]3O)[nH]nc12` [FORMYCIN] returned an MIC50 of 7 µg/mL (≈ 26.2 µM).

`Nc1ncnc2c1ccn2[C@@H]1O[C@H](CO)[C@H](O)[C@H]1O`: the MIC50 worked out at 0.03 µg/mL (≈ 0.113 µM).

With `N#Cc1cn([C@@H]2O[C@H](CO)[C@@H](O)[C@@H]2O)c2ncnc(N)c12`, the MIC50 came out at 1 µg/mL (≈ 3.43 µM).

`Nc1ncnc2c1ccn2C1OC(CO)CC1O` (configuration not stated): the MIC50 was 1.5 µg/mL (≈ 5.99 µM).

`N#Cc1cn(C2OC(CO)CC2O)c2ncnc(N)c12` (configuration not stated) registered an MIC50 of 0.1 µg/mL (≈ 0.363 µM).

The compound `Nc1ncnc2c1ccn2[C@H]1C[C@H](O)[C@@H](CO)O1` [2'-Deoxytubercidin] showed an MIC50 of 10 µg/mL (≈ 40 µM).

The compound `NC(=O)c1cn([C@@H]2O[C@H](CO)[C@@H](O)[C@H]2O)c2ncnc(N)c12` [SANGIVAMYCIN] registered an MIC50 of 0.02 µg/mL (≈ 0.0647 µM).

For the compound `NC(=O)c1cn(C2OC(CO)CC2O)c2ncnc(N)c12` (configuration not stated), the MIC50 turned out to be 2 µg/mL (≈ 6.82 µM).

Compound `N#Cc1cn([C@@H]2O[C@H](CO)[C@@H](O)[C@H]2O)c2ncnc(N)c12` [TOYOCAMYCIN] registered an MIC50 above 0.04 µg/mL.

For the compound `NC(=O)c1cn([C@H]2C[C@H](O)[C@@H](CO)O2)c2ncnc(N)c12`, the MIC50 turned out to be 0.4 µg/mL (≈ 1.36 µM).
